Test system: isolated guinea pig ileum
Assay: Anti-cholinergic activity: acetylcholine-induced contraction of isolated guinea pig ileum
Conditions: in words; isolated compounds were tested only on isolated guinea pig ileum
Procedure: Female, virgin guinea pigs weighing around 300 to 350 g, housed under uniform husbandry conditions (temperature 25±1° C.) were used. The animals were starved 24 hours prior to the experiment, only water was provided ad libitum.
The isolated guinea pig ileum was used to study the anti-spasmodic, anti-cholinergic, and anti-arrhythmic activity of the active fractions.
In particular, the five compounds isolated were tested only on isolated guinea pig ileum. The longitudinal ileal muscle from a freshly killed guinea pig was suspended in an organ bath of 10 ml capacity, filled with Tyrode solution, and aerated with air.
All of these compounds were dissolved in 1000 ml of distilled water.
Two to four doses of acetylcholine were added to the bath to obtain uniform amplitude with a contact period of 30 seconds, the contractions of which were recorded on a polygraph. The five compounds isolated were tested in doses of 196 and 392×10^−6 moles per ml of bath concentration.

Structure (SMILES)	biological activity shown by the extract, in purified compounds
C=C(C)[C@@H]1CC[C@]2(CO)CC[C@]3(C)[C@H](CC[C@@H]4[C@@]5(C)CC[C@H](O)C(C)(C)[C@@H]5CC[C@]43C)[C@@H]12 [betulin]	maintained
CCCCCCCCCCCCCCCC(=O)OC [methyl palmitate]	maintained

Reference: patent US6753021B2, “Biologically active chloroform fraction of an extract obtained from a mangrove plant Salvadora persica L” (Council of Scientific & Industrial Research, priority 2001, dated 2004)
